Test results reported in ChEMBL document CHEMBL3862012, “Methylene versus carbonyl bridge in the structure of new tubulin polymerization inhibitors with tricyclic A-rings” (Bioorg Med Chem, 2016).

Legend:
Format in all cases: functional
[1] = Cytotoxicity against human SR cells assessed as growth inhibition at 10 uM after 48 hrs by SRB assay relative to control; settings: read-out: GI
[2] = Cytotoxicity against human NCI-H226 cells assessed as growth inhibition at 10 uM after 48 hrs by SRB assay relative to control; settings: NCI-H226, 48 h, read-out: GI
[3] = Cytotoxicity against human HCT15 cells assessed as growth inhibition at 10 uM after 48 hrs by SRB assay relative to control; settings: HCT-15, 48 h, read-out: GI
[4] = Cytotoxicity against human TK10 cells assessed as growth inhibition at 10 uM after 48 hrs by SRB assay relative to control; settings: TK-10, 48 h, read-out: GI
[5] = Cytotoxicity against human RXF393 cells assessed as growth inhibition at 10 uM after 48 hrs by SRB assay relative to control; settings: RXF 393, 48 h, read-out: GI
[6] = Cytotoxicity against human HCT116 cells assessed as growth inhibition after 48 hrs by SRB assay; settings: HCT-116, 48 h
[7] = Cytotoxicity against human OVCAR5 cells assessed as growth inhibition after 48 hrs by SRB assay; settings: OVCAR-5, 48 h
[8] = Cytotoxicity against human UACC62 cells assessed as growth inhibition at 10 uM after 48 hrs by SRB assay relative to control; settings: UACC-62, 48 h, read-out: GI
[9] = Cytotoxicity against human T47D cells assessed as growth inhibition at 10 uM after 48 hrs by SRB assay relative to control; settings: read-out: GI
[10] = Cytotoxicity against human SN12C cells assessed as growth inhibition after 48 hrs by SRB assay
[11] = Cytotoxicity against human SN12C cells assessed as growth inhibition at 10 uM after 48 hrs by SRB assay relative to control; settings: read-out: GI
[12] = Cytotoxicity against human SW620 cells assessed as growth inhibition after 48 hrs by SRB assay; settings: SW-620, 48 h
[13] = Cytotoxicity against human NCI-ADR-RES cells assessed as growth inhibition at 10 uM after 48 hrs by SRB assay relative to control; settings: read-out: GI
[14] = Cytotoxicity against human UACC257 cells assessed as growth inhibition at 10 uM after 48 hrs by SRB assay relative to control; settings: UACC-257, 48 h, read-out: GI
[15] = Cytotoxicity against human A498 cells assessed as growth inhibition at 10 uM after 48 hrs by SRB assay relative to control; settings: A498, 48 h, read-out: GI
[16] = Cytotoxicity against human COLO205 cells assessed as growth inhibition at 10 uM after 48 hrs by SRB assay relative to control; settings: COLO 205, 48 h, read-out: GI
[17] = Cytotoxicity against human KM12 cells assessed as growth inhibition at 10 uM after 48 hrs by SRB assay relative to control; settings: KM12, 48 h, read-out: GI
[18] = Cytotoxicity against human HL-60(TB) cells assessed as growth inhibition at 10 uM after 48 hrs by SRB assay relative to control; settings: HL-60, 48 h, read-out: GI
[19] = Cytotoxicity against human NCI-H322M cells assessed as growth inhibition at 10 uM after 48 hrs by SRB assay relative to control; settings: read-out: GI
[20] = Cytotoxicity against human IGROV1 cells assessed as growth inhibition after 48 hrs by SRB assay; settings: IGROV-1, 48 h
[21] = Cytotoxicity against human HT-29 cells assessed as growth inhibition after 48 hrs by SRB assay; settings: HT-29, 48 h
[22] = Cytotoxicity against human MDA-MB-435 cells assessed as growth inhibition after 48 hrs by SRB assay; settings: MDA-MB-435, 48 h
[23] = Cytotoxicity against human HCC2998 cells assessed as growth inhibition after 48 hrs by SRB assay; settings: HCC 2998, 48 h
[24] = Cytotoxicity against human HCC2998 cells assessed as growth inhibition at 10 uM after 48 hrs by SRB assay relative to control; settings: HCC 2998, 48 h, read-out: GI
[25] = Cytotoxicity against human K562 cells assessed as growth inhibition after 48 hrs by SRB assay; settings: K562, 48 h
[26] = Cytotoxicity against human Hs 578T cells assessed as growth inhibition at 10 uM after 48 hrs by SRB assay relative to control; settings: read-out: GI
[27] = Cytotoxicity against human NCI-H23 cells assessed as growth inhibition at 10 uM after 48 hrs by SRB assay relative to control; settings: NCI-H23, 48 h, read-out: GI
[28] = Cytotoxicity against human HCT116 cells assessed as growth inhibition at 10 uM after 48 hrs by SRB assay relative to control; settings: HCT-116, 48 h, read-out: GI
[29] = Cytotoxicity against human RPMI8226 cells assessed as growth inhibition at 10 uM after 48 hrs by SRB assay relative to control; settings: RPMI-8226, 48 h, read-out: GI
[30] = Cytotoxicity against human SF295 cells assessed as growth inhibition after 48 hrs by SRB assay; settings: SF-295, 48 h
[31] = Cytotoxicity against human SKOV3 cells assessed as growth inhibition after 48 hrs by SRB assay; settings: SK-OV-3, 48 h
[32] = Cytotoxicity against human BT549 cells assessed as growth inhibition after 48 hrs by SRB assay; settings: BT-549, 48 h
[33] = Cytotoxicity against human SF539 cells assessed as growth inhibition after 48 hrs by SRB assay; settings: SF-539, 48 h
[34] = Cytotoxicity against human ACHN cells assessed as growth inhibition after 48 hrs by SRB assay
[35] = Cytotoxicity against human A549 cells assessed as growth inhibition after 48 hrs by SRB assay; settings: A549, 48 h
[36] = Cytotoxicity against human NCI-H23 cells assessed as growth inhibition after 48 hrs by SRB assay; settings: NCI-H23, 48 h
[37] = Cytotoxicity against human NCI-ADR-RES cells assessed as growth inhibition after 48 hrs by SRB assay
[38] = Cytotoxicity against human CCRF-CEM cells assessed as growth inhibition after 48 hrs by SRB assay
[39] = Cytotoxicity against human RPMI8226 cells assessed as growth inhibition after 48 hrs by SRB assay; settings: RPMI-8226, 48 h
[40] = Cytotoxicity against human SNB75 cells assessed as growth inhibition after 48 hrs by SRB assay; settings: SNB-75, 48 h
[41] = Cytotoxicity against human OVCAR8 cells assessed as growth inhibition after 48 hrs by SRB assay; settings: OVCAR-8, 48 h
[42] = Cytotoxicity against human SF268 cells assessed as growth inhibition after 48 hrs by SRB assay; settings: SF-268, 48 h
[43] = Cytotoxicity against human OVCAR8 cells assessed as growth inhibition at 10 uM after 48 hrs by SRB assay relative to control; settings: OVCAR-8, 48 h, read-out: GI

In the case of `COc1ccc(CN2c3ccccc3Sc3ccccc32)c(F)c1`, the inhibition of growth at 10 µM [1] is reported as 88%, the inhibition of growth at 10 µM [2] is reported as 44% and the inhibition of growth at 10 µM [3] is reported as 65%. The inhibition of growth at 10 µM [4] was 49%, the inhibition of growth at 10 µM [5] was 99% and the GI50 [6] was 40 nM. For the same compound, the GI50 [7] was 4390 nM, the inhibition of growth at 10 µM [8] was 67% and the inhibition of growth at 10 µM [9] was 88%. For the same compound, the GI50 [10] was 10600 nM, the inhibition of growth at 10 µM [11] was 53% and the GI50 [12] was 36 nM. The inhibition of growth at 10 µM [13] was 78%, the inhibition of growth at 10 µM [14] was 48% and the inhibition of growth at 10 µM [15] was 100%. For the same compound, the inhibition of growth at 10 µM [16] was 88%, the inhibition of growth at 10 µM [17] was 74% and the inhibition of growth at 10 µM [18] was 100%. The inhibition of growth at 10 µM [19] was 55%, the GI50 [20] was 46 nM and the GI50 [21] was 35 nM. For the same compound, the GI50 [22] was 25 nM, the GI50 [23] was 5060 nM and the inhibition of growth at 10 µM [24] was 38%. The GI50 [25] was 38 nM, the inhibition of growth at 10 µM [26] was 78% and the inhibition of growth at 10 µM [27] was 50%. The inhibition of growth at 10 µM [28] was 84% and the inhibition of growth at 10 µM [29] was 88%.
In the case of `COc1ccc(CN2c3ccccc3CCc3ccccc32)cc1F`, the GI50 [30] is reported as 333 nM, the inhibition of growth at 10 µM [1] is reported as 88% and the GI50 [31] is reported as 471 nM. For the same compound, the inhibition of growth at 10 µM [2] was 47%, the GI50 [32] was 746 nM and the GI50 [33] was 287 nM. The inhibition of growth at 10 µM [3] was 75%, the inhibition of growth at 10 µM [4] was 37% and the inhibition of growth at 10 µM [5] was 82%. It also gave a GI50 [34] of 604 nM, a GI50 [6] of 413 nM and a GI50 [35] of 732 nM. It also gave a GI50 [7] of 1900 nM, an inhibition of growth at 10 µM [8] of 75% and an inhibition of growth at 10 µM [9] of 53%. For the same compound, the GI50 [36] was 672 nM, the GI50 [10] was 1950 nM and the GI50 [37] was 456 nM. For the same compound, the inhibition of growth at 10 µM [11] was 61%, the GI50 [12] was 386 nM and the GI50 [38] was 515 nM. For the same compound, the inhibition of growth at 10 µM [13] was 89%, the inhibition of growth at 10 µM [14] was 38% and the inhibition of growth at 10 µM [15] was 100%. For the same compound, the GI50 [39] was 644 nM, the inhibition of growth at 10 µM [16] was 100% and the inhibition of growth at 10 µM [17] was 83%. For the same compound, the inhibition of growth at 10 µM [18] was 100%, the inhibition of growth at 10 µM [19] was 42% and the GI50 [20] was 1570 nM. The GI50 [21] was 319 nM, the GI50 [22] was 187 nM and the GI50 [40] was 277 nM. The GI50 [23] was 8900 nM, the GI50 [41] was 880 nM and the inhibition of growth at 10 µM [24] was 69%. It also gave a GI50 [25] of 402 nM, an inhibition of growth at 10 µM [26] of 70% and an inhibition of growth at 10 µM [27] of 61%. For the same compound, the inhibition of growth at 10 µM [28] was 98%, the GI50 [42] was 660 nM and the inhibition of growth at 10 µM [29] was 91%.
Compound `COc1ccc(CN2c3ccccc3Sc3ccccc32)cc1F` has a GI50 [30] of 333 nM, an inhibition of growth at 10 µM [1] of 83% and a GI50 [31] of 475 nM. It also gave an inhibition of growth at 10 µM [2] of 44%, a GI50 [32] of 562 nM and a GI50 [33] of 330 nM. It also gave an inhibition of growth at 10 µM [3] of 84%, an inhibition of growth at 10 µM [4] of 53% and an inhibition of growth at 10 µM [5] of 83%. The GI50 [34] was 1220 nM, the GI50 [6] was 377 nM and the GI50 [35] was 757 nM. It also gave an inhibition of growth at 10 µM [8] of 72%, an inhibition of growth at 10 µM [9] of 50% and a GI50 [36] of 764 nM. For the same compound, the GI50 [10] was 575 nM, the GI50 [37] was 326 nM and the inhibition of growth at 10 µM [11] was 55%. For the same compound, the GI50 [12] was 384 nM, the GI50 [38] was 428 nM and the inhibition of growth at 10 µM [13] was 97%. The inhibition of growth at 10 µM [14] was 45%, the inhibition of growth at 10 µM [15] was 100% and the GI50 [39] was 482 nM. The inhibition of growth at 10 µM [16] was 100%, the inhibition of growth at 10 µM [17] was 84% and the inhibition of growth at 10 µM [18] was 100%. The inhibition of growth at 10 µM [19] was 57%, the GI50 [20] was 1070 nM and the GI50 [21] was 331 nM. For the same compound, the GI50 [22] was 189 nM, the GI50 [40] was 204 nM and the GI50 [23] was 1130 nM. The GI50 [41] was 663 nM, the inhibition of growth at 10 µM [24] was 82% and the GI50 [25] was 369 nM. For the same compound, the inhibition of growth at 10 µM [26] was 83%, the inhibition of growth at 10 µM [27] was 69% and the inhibition of growth at 10 µM [28] was 91%. The inhibition of growth at 10 µM [43] was 76%, the GI50 [42] was 1430 nM and the inhibition of growth at 10 µM [29] was 79%.
